Data on 24 compounds can be found in US10723699B2 (Hyundai Pharm Co., Ltd., priority 2015, dated 2020).

Read-outs that look alike come from different tables or passages of the source.

This test has as its target T1, G protein-coupled receptor 119 (GPR-119) (Mesocricetus auratus, UniProt A0A1U8CD06).
T1 construct: hamster-derived β-cells containing G protein-coupled receptor 119 (GPR-119), HIT-T15 cells; host or cells: HIT-T15 (hamster pancreatic β-cells)
T1 sequence (A0A1U8CD06 1-334): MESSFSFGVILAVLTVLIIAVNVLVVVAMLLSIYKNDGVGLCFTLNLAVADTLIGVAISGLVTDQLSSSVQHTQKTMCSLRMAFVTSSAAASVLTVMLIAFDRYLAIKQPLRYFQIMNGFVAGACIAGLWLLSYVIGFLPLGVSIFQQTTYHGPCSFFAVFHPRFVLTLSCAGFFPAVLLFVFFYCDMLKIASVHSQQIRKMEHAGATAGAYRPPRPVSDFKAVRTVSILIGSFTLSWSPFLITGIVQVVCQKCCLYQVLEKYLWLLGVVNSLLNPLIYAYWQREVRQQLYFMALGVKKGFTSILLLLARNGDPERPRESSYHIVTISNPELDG
Description: cAMP activity in HIT-T15 cells (cAMP dynamic kit, FRET). The test is classed as cell-based, hamster. On the procedure:
To check whether the cyclohexene derivatives according to the present invention activate cyclic adenosine monophosphate (cAMP), experiments were carried out, as follows.
The HIT-T15 cells were plated on a 96-well plate at 60,000 cells per well. On the next day of plating, the cells were treated with a varying concentration of each of the example compounds according to the present invention, and incubated at 37° C. for an hour. In this case, each of the treated compounds was used at six concentrations, ranging from 0.0032 to 10 μM, to treat the cells.
The cyclic adenosine monophosphate (cAMP) activity was measured according to the manufacturer's instruction using a cAMP dynamic kit commercially available from Cis Bio Inc. (Bedford, Mass.). The cells were lysed, and a level of cAMP was determined by a competitive immunoassay using D2-labeled cAMP and a cryptate-labeled anti-cAMP antibody. Fluorescence was read in Flex Station (Molecular Devices). […] Unlabeled cAMP in the cell lysate competed with the D2-labeled cAMP against the cryptate-labeled antibody. Since a decrease in the measured intensity of the FRET signals represents a level of cAMP in the cells, the cAMP activities of the compounds are calculated as a change in FRET signals by adjusting an amount of dimethyl sulfoxide (DMSO).

Where [1] appears, read: 1 hour at 37° C., six concentrations 0.0032 to 10 μM, read-out: EC50.

Take `CC(C)c1noc(N2CCC(COc3ccc(C4=CCC(C(=O)N5CCCCC5)CC4)cc3F)CC2)n1` (centres unmarked) [Example 332, (4-(3-fluoro-4-((1-(3-isopropyl-1,2,4-oxadiazol-5-yl)piperidin-4-yl)methoxy)phenyl)cyclohex-3-enyl)(piperidin-1-yl)methanone]: the EC50 (commonly the concentration at which the effect is half-maximal) was 6.7 nM under setting [1] and no more than 50 nM (Table 2, read-out: EC50 value).
The matching figures for `CCc1cnc(N2CCC(COc3ccc(C4=CCC(C(=O)N5CCCCC5)CC4)cc3F)CC2)nc1` (centres unmarked) [Example 292, (4-(4-((1-(5-ethylpyrimidin-2-yl)piperidin-4-yl)methoxy)-3-fluorophenyl)cyclohex-3-enyl)(piperidin-1-yl)methanone]: 12 nM and no more than 50 nM.
Take `CCc1cnc(N2CCC(COc3ccc(C4=CCC(C(=O)N5CCC(F)(F)CC5)CC4)cc3F)CC2)nc1` (centres unmarked) [Example 457, (4,4-difluoropiperidin-1-yl)(4-(4-((1-(5-ethylpyrimidin-2-yl)piperidin-4-yl)methoxy)-3-fluorophenyl)cyclohex-3-enyl)methanone]: the EC50 is 9.8 nM under setting [1] and no more than 50 nM (Table 2, read-out: EC50 value).
On to `O=C(C1CC=C(c2ccc(OCC3CCN(C(=O)C4(C(F)(F)F)CCCC4)CC3)c(F)c2)CC1)N1CCOCC1` (centres unmarked) [Example 450, (4-(3-fluoro-4-((1-(1-(trifluoromethyl)cyclopentanecarbonyl)piperidin-4-yl)methoxy)phenyl)cyclohex-3-enyl)(morpholino)methanone], for which the EC50 under setting [1] came to 27 nM and the 50% effective concentration (EC50) (Table 2, read-out: EC50 value) is no more than 50 nM.
In the case of `CCc1cnc(N2CCC(COc3ccc(C4=CCC(C(=O)N5CCC[C@H]5CO)CC4)cc3)CC2)nc1` (single isomer, unassigned; (-)) [Example 465], under setting [1], the 50% effective concentration (EC50) was determined as 110 nM.
Take `CC(C)c1noc(N2CCC(COc3ccc(C4=CCC(C(=O)N5CC(=NO)C5)CC4)cn3)CC2)n1` (centres unmarked) [Example 337, (3-(hydroxyimino)azetidin-1-yl)(4-(6-((1-(3-isopropyl-1,2,4-oxadiazol-5-yl)piperidin-4-yl)methoxy)pyridin-3-yl)cyclohex-3-enyl)methanone]: under setting [1], the EC50 worked out at 160 nM.
As to `CCc1cnc(N2CCC(COc3ccc(C4=CCC(C(=O)N(CC)CCO)CC4)c(F)c3)CC2)nc1` (centres unmarked) [Example 438, N-ethyl-4-(4-((1-(5-ethylpyrimidin-2-yl)piperidin-4-yl)methoxy)-2-fluorophenyl)-N-(2-hydroxyethyl)cyclohex-3-enecarboxamide], the EC50 is, setting by setting: under setting [1], 23 nM; (Table 2, read-out: EC50 value) no more than 50 nM.
On the same counts, the results for `CC(C)c1noc(N2CCC(COc3ccc(C4=CCC(C(=O)N5CCSCC5)CC4)cn3)CC2)n1` (centres unmarked) [Example 318, (4-(6-((1-(3-isopropyl-1,2,4-oxadiazol-5-yl)piperidin-4-yl)methoxy)pyridin-3-yl)cyclohex-3-enyl)(thiomorpholino)methanone] are 38 nM and no more than 50 nM.
On to `CC(C)c1noc(N2CCC(COc3ccc(C4=CCC(C(=O)N5CCC(N6CCCC6)CC5)CC4)cc3F)CC2)n1` (centres unmarked) [Example 336, (4-(3-fluoro-4-((1-(3-isopropyl-1,2,4-oxadiazol-5-yl)piperidin-4-yl)methoxy)phenyl)cyclohex-3-enyl)(4-(pyrrolidin-1-yl)piperidin-1-yl)methanone], for which, under setting [1], the EC50 is 180 nM.
For the compound `CC(C)c1noc(N2CCC(COc3ccc(C4=CCC(C(=O)N5CCC(=NO)CC5)CC4)cc3)CC2)n1` (centres unmarked) [Example 276, (4-(hydroxyimino)piperidin-1-yl)(4-(4-((1-(3-isopropyl-1,2,4-oxadiazol-5-yl)piperidin-4-yl)methoxy)phenyl)cyclohex-3-enyl)methanone], under “Table 2, read-out: EC50 value”, the EC50 is no more than 50 nM.
In the case of `CCc1cnc(N2CCC(COc3ccc(C4=CCC(C(=O)NC5CCCC5)CC4)cc3F)CC2)nc1` (centres unmarked) [Example 304, N-cyclopentyl-4-(4-((1-(5-ethylpyrimidin-2-yl)piperidin-4-yl)methoxy)-3-fluorophenyl)cyclohex-3-enecarboxamide], the EC50 under setting [1] came out at 20 nM and the EC50 (Table 2, read-out: EC50 value) is no more than 50 nM.
Regarding `CCc1cnc(N2CCC(COc3ccc(C4=CCC(C(=O)N5CCNCC5)CC4)cc3F)CC2)nc1` (centres unmarked) [Example 434, (4-(4-((1-(5-ethylpyrimidin-2-yl)piperidin-4-yl)methoxy)-3-fluorophenyl)cyclohex-3-enyl)(piperazin-1-yl)methanone], the EC50 under setting [1] worked out at 180 nM.
Consider `CC(C)(C)OC(=O)N1CCC(COc2ccc(C3=CCC(C(=O)N4CCN(CC5CC5)CC4)CC3)cc2)CC1` (centres unmarked) [Example 256, tert-butyl 4-((4-(4-(4-(cyclopropylmethyl)piperazine-1-carbonyl)cyclohex-1-enyl)phenoxy)methyl)piperidine-1-carboxylate], for which the EC50 (Table 2, read-out: EC50 value) is no more than 50 nM.
Consider `CCc1cnc(N2CCC(COc3ccc(C4=CCC(C(=O)N5CCSCC5)CC4)cc3C#N)CC2)nc1` (centres unmarked) [Example 389, 2-((1-(5-ethylpyrimidin-2-yl)piperidin-4-yl)methoxy)-5-(4-(thiomorpholine-4-carbonyl)cyclohex-1-enyl)benzonitrile], for which the EC50 under setting [1] stood at 68 nM.
With `O=C(OC(C(F)(F)F)C(F)(F)F)N1CCC(COc2ccc(C3=CCC(C(=O)N4CCOCC4)CC3)cc2F)CC1` (centres unmarked) [Example 446, 1,1,1,3,3,3-hexafluoropropan-2-yl 4-((2-fluoro-4-(4-(morpholine-4-carbonyl)cyclohex-1-enyl)phenoxy)methyl)piperidine-1-carboxylate], the EC50 under setting [1] came out at 20 nM and the EC50 (Table 2, read-out: EC50 value) was no more than 50 nM.
The matching figures for `CCc1cnc(N2CCC(COc3ccc(C4=CCC(C(=O)N(C)CCO)CC4)cc3F)CC2)nc1` (centres unmarked) [Example 359, 4-(4-((1-(5-ethylpyrimidin-2-yl)piperidin-4-yl)methoxy)-3-fluorophenyl)-N-(2-hydroxyethyl)-N-methylcyclohex-3-enecarboxamide]: 14 nM and no more than 50 nM.
The matching figures for `CC(C)c1noc(N2CCC(COc3ccc(C4=CCC(C(=O)N(CCO)CCO)CC4)cc3F)CC2)n1` (centres unmarked) [Example 372, 4-(3-fluoro-4-((1-(3-isopropyl-1,2,4-oxadiazol-5-yl)piperidin-4-yl)methoxy)phenyl)-N,N-bis(2-hydroxyethyl)cyclohex-3-enecarboxamide]: 46 nM and no more than 50 nM.
The matching figures for `CCc1cnc(N2CCC(COc3ccc(C4=CCC(C(=O)N(CCO)CCO)CC4)c(F)c3)CC2)nc1` (centres unmarked) [Example 437, 4-(4-((1-(5-ethylpyrimidin-2-yl)piperidin-4-yl)methoxy)-2-fluorophenyl)-N,N-bis(2-hydroxyethyl)cyclohex-3-enecarboxamide]: 27 nM and no more than 50 nM.
As to `CCc1cnc(N2CCC(COc3ccc(C4=CCC(C(=O)N5CC(O)C5)CC4)cc3F)CC2)nc1` (centres unmarked) [Example 309, (4-(4-((1-(5-ethylpyrimidin-2-yl)piperidin-4-yl)methoxy)-3-fluorophenyl)cyclohex-3-enyl)(3-hydroxyazetidin-1-yl)methanone], the EC50 is, setting by setting: under setting [1], 11 nM; (Table 2, read-out: EC50 value) no more than 50 nM.
Turning to `CC(C)=CC(=O)N1CCC(COc2ccc(C3=CCC(C(=O)N4CCOCC4)CC3)cc2F)CC1` (centres unmarked) [Example 451, 1-(4-((2-fluoro-4-(4-(morpholine-4-carbonyl)cyclohex-1-enyl)phenoxy)methyl)piperidin-1-yl)-3-methylbut-2-en-1-one], the EC50 under setting [1] turned out to be 89 nM.
Turning to `CCc1cnc(N2CCC(COc3ccc(C4=CCC(C(=O)N5CCC(F)(F)CC5)CC4)c(F)c3)CC2)nc1` (centres unmarked) [Example 453, (4,4-difluoropiperidin-1-yl)(4-(4-((1-(5-ethylpyrimidin-2-yl)piperidin-4-yl)methoxy)-2-fluorophenyl)cyclohex-3-enyl)methanone], the EC50 under setting [1] was determined as 12 nM and the EC50 (Table 2, read-out: EC50 value) is no more than 50 nM.
In the case of `CCc1cnc(N2CCC(COc3ccc(C4=CCC(C(=O)N5CCC(O)CC5)CC4)cn3)CC2)nc1` (centres unmarked) [Example 353, (4-(6-((1-(5-ethylpyrimidin-2-yl)piperidin-4-yl)methoxy)pyridin-3-yl)cyclohex-3-enyl)(4-hydroxypiperidin-1-yl)methanone], the EC50 under setting [1] came to 58 nM.
`CC(C)c1noc(N2CCC(COc3ccc(C4=CCC(C(=O)N5CCC(=NO)CC5)CC4)cc3F)CC2)n1` (centres unmarked) [Example 411, (4-(3-fluoro-4-((1-(3-isopropyl-1,2,4-oxadiazol-5-yl)piperidin-4-yl)methoxy)phenyl)cyclohex-3-enyl)(4-(hydroxyimino)piperidin-1-yl)methanone]: the concentration for a half-maximal effect (EC50) is, setting by setting: under setting [1], 15 nM; (Table 2, read-out: EC50 value) no more than 50 nM.
In the case of `CCc1cnc(N2CCC(COc3ccc(C4=CCC(C(=O)N5CCOCC5)CC4)cc3C(F)(F)F)CC2)nc1` (centres unmarked) [Example 400, (4-(4-((1-(5-ethylpyrimidin-2-yl)piperidin-4-yl)methoxy)-3-(trifluoromethyl)phenyl)cyclohex-3-enyl)(morpholino)methanone], the EC50 under setting [1] was determined as 140 nM.
